Publication PMC5830402, “Cell-based glycan arrays for probing glycan–glycan binding protein interactions” (Nature Communications, 2018)

Legend:
ST6Gal1 (rat α2-6ST) = target: T1, ST6Gal1 (rat α2-6ST) (Rattus norvegicus, UniProt P13721); assay: transfer to Lec2 cell surface, ECL lectin flow cytometry; biotin-azide / streptavidin detection; assay type: cell-based; settings: added recombinant enzyme; acceptor N-glycan LacNAc on Lec2 CHO cells; 37 °C, 1 h
T1 construct: recombinant glycosyltransferase
T1 sequence (P13721 27-403 limits assumed): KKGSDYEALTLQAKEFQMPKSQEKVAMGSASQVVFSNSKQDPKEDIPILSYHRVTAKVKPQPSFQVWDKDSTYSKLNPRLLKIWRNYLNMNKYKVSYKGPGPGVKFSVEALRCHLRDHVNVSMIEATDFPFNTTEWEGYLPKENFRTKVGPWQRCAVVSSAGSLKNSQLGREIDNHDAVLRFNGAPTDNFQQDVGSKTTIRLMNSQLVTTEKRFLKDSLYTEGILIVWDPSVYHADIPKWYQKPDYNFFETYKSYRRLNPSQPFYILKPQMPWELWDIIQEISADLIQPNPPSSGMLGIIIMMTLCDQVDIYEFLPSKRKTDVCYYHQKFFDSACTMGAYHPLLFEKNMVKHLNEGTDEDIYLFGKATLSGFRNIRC

ST3Gal4 (human α2-3ST) = target: T2, ST3Gal4 (human α2-3ST) (Homo sapiens, UniProt Q11206); assay: as above; assay type: cell-based; settings: added recombinant enzyme; acceptor N-glycan LacNAc on Lec2 CHO cells; 37 °C, 1 h
T2 construct: recombinant glycosyltransferase
T2 sequence (Q11206 27-333 limits assumed): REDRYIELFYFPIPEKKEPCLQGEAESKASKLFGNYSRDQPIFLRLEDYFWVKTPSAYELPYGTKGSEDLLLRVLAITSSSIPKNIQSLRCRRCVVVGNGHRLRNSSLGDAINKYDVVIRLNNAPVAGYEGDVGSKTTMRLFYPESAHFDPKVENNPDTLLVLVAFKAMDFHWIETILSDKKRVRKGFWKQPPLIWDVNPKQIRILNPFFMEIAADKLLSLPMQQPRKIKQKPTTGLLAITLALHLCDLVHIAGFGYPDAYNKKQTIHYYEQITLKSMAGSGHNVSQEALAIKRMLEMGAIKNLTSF

C#CCOC(=O)N[C@H]1[C@H]([C@H](O)[C@H](O)CO)O[C@](OP(=O)(O)OC[C@H]2O[C@@H](n3ccc(N)nc3=O)[C@H](O)[C@@H]2O)(C(=O)O)C[C@@H]1O [compound 7, CMP-SiaPoc]
transfer to Lec2 cell surface, ECL lectin flow cytometry; biotin-azide / strepta (ST6Gal1 (rat α2-6ST)): Upon sialylation by ST3Gal4 and ST6Gal1, Lec2 CHO cells showed a reduction in ECL binding
transfer to Lec2 cell surface, ECL lectin flow cytometry; biotin-azide / strepta (ST3Gal4 (human α2-3ST)): Upon sialylation by ST3Gal4 and ST6Gal1, Lec2 CHO cells showed a reduction in ECL binding
